Consider two compounds from US6352977B1, “Substituted β-alanines” (Aventis Pharma Limited, priority 1998, dated 2002).

Molecules are shown by their SMILES.

On to `COc1cc(CC(=O)N(C)CC(=O)N(CCCN2CCCC2=O)CCC(=O)O)ccc1NC(=O)Nc1ccccc1C`, for which the melting point (commonly the temperature, or range, at which the solid turns liquid) lay in the range of 73 to 76 °C.
In the case of `COc1cc(CC(=O)N(C)CC(=O)N(CCC(=O)O)Cc2ccc(OC)c(OC)c2)ccc1NC(=O)Nc1ccccc1C` it was 183 to 187 °C.
